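Results reflect a 48-hour exposure of cells in 96-well plates to compound at five concentrations. At the GI50, growth is halved. At the TGI there is no net growth.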
Key:
Test in all cases: DTP human tumour cell line panel, 48 h
[1] = test system: SN12C renal
[2] = test system: NCI-H226 lung
[3] = test system: SK-MEL-28 melanoma
[4] = test system: M14 melanoma
[5] = test system: A498 renal
[6] = test system: MDA-MB-231 breast
[7] = test system: SF-295 CNS
[8] = test system: K-562 leukemia
[9] = test system: OVCAR-4 ovarian
[10] = test system: T-47D breast
[11] = test system: PC-3 prostate
[12] = test system: HT29 colon
[13] = test system: NCI-H522 lung
[14] = test system: SNB-19 CNS
[15] = test system: SF-268 CNS
[16] = test system: SF-539 CNS
[17] = test system: OVCAR-5 ovarian
[18] = test system: HOP-62 NSCLC
[19] = test system: SNB-75 CNS
[20] = test system: OVCAR-3 ovarian
[21] = test system: RXF 393 renal
[22] = test system: OVCAR-8 ovarian
[23] = test system: UACC-62 melanoma
[24] = test system: HOP-92 NSCLC
[25] = test system: TK-10 renal
[26] = test system: SK-OV-3 ovarian
[27] = test system: 786-0 renal
[28] = test system: MALME-3M melanoma
[29] = test system: U251 CNS
[30] = test system: BT-549 breast
[31] = test system: HL-60(TB) leukemia
[32] = test system: UACC-257 melanoma
[33] = test system: HS 578T breast
[34] = test system: LOX IMVI melanoma
[35] = test system: SK-MEL-5 melanoma
[36] = test system: MCF7 breast
[37] = test system: MOLT-4 leukemia
[38] = test system: IGROV1 ovarian
[39] = test system: UO-31 renal
[40] = test system: SK-MEL-2 melanoma
[41] = test system: NCI-H23 lung
[42] = test system: EKVX NSCLC
[43] = test system: COLO 205 colon
[44] = test system: HCT-15 colon
[45] = test system: RPMI-8226 leukemia
[46] = test system: HCT-116 colon
[47] = test system: MDA-MB-435
[48] = test system: NCI-H460 lung
[49] = test system: CCRF-CEM leukemia
[50] = test system: HCC-2998 colon
[51] = test system: CAKI-1 renal
[52] = test system: SR leukemia
[53] = test system: SW-620 colon
[54] = test system: DU-145 prostate
[55] = test system: A549 NSCLC
[56] = test system: NCI/ADR-RES ovarian
[57] = test system: ACHN renal
[58] = test system: KM12 colon

O=C(Nc1cccc(Cl)c1)Nc1cccc(Cl)c1
GI50 [1]: > 100000 nM | TGI [1]: > 100000 nM | GI50 [2]: > 100000 nM | TGI [2]: > 100 µM | GI50 [3]: > 100000 nM | TGI [3]: > 100000 nM | GI50 [4]: > 100000 nM | TGI [4]: > 100000 nM | GI50 [5]: 2870 nM | TGI [5]: > 100 µM | GI50 [6]: 18.2 µM | TGI [6]: > 100000 nM | GI50 [7]: 3010 nM | TGI [7]: > 100000 nM | GI50 [8]: 3230 nM | TGI [8]: > 100000 nM | GI50 [9]: 1990 nM | TGI [9]: > 100000 nM | GI50 [10]: 2280 nM | TGI [10]: > 100000 nM | GI50 [11]: 2540 nM | TGI [11]: > 100000 nM | GI50 [12]: 2260 nM | TGI [12]: > 100000 nM | GI50 [13]: 2040 nM | TGI [13]: > 100000 nM | GI50 [14]: > 42900 nM | TGI [14]: > 100000 nM | GI50 [15]: > 81600 nM | TGI [15]: > 100000 nM | GI50 [16]: 49.1 µM | TGI [16]: > 100000 nM | GI50 [17]: > 100000 nM | TGI [17]: > 100000 nM | GI50 [18]: 21.9 µM | TGI [18]: > 88800 nM | GI50 [19]: 2490 nM | TGI [19]: 44.3 µM | GI50 [20]: 2920 nM | TGI [20]: > 100000 nM | GI50 [21]: 24.1 µM | TGI [21]: > 92800 nM | GI50 [22]: 15.3 µM | TGI [22]: > 100000 nM | GI50 [23]: 3690 nM | TGI [23]: > 100000 nM | GI50 [24]: 2110 nM | TGI [24]: > 100 µM | GI50 [25]: > 100000 nM | TGI [25]: > 100000 nM | GI50 [26]: > 100000 nM | TGI [26]: > 100000 nM | GI50 [27]: 36.7 µM | TGI [27]: > 100000 nM | GI50 [28]: > 100000 nM | TGI [28]: > 100000 nM | GI50 [29]: 7.05 µM | TGI [29]: > 100000 nM | GI50 [30]: > 100000 nM | TGI [30]: > 100000 nM | GI50 [31]: 5020 nM | TGI [31]: > 100000 nM | GI50 [32]: > 100000 nM | TGI [32]: > 100000 nM | GI50 [33]: > 100000 nM | TGI [33]: > 100 µM | GI50 [34]: 32 µM | TGI [34]: > 100000 nM | GI50 [35]: > 100000 nM | TGI [35]: > 100000 nM | GI50 [36]: 5.79 µM | TGI [36]: > 100000 nM | GI50 [37]: 23.8 µM | TGI [37]: > 100000 nM | GI50 [38]: 37.8 µM | TGI [38]: > 100000 nM | GI50 [39]: > 26000 nM | TGI [39]: > 100000 nM | GI50 [40]: > 21500 nM | TGI [40]: > 100 µM

Nc1nc(N)c2cc(CNc3ccc(Cl)c(Cl)c3)ccc2n1
GI50 [1]: 732 nM | TGI [1]: 2120 nM | GI50 [2]: 1580 nM | TGI [2]: 3.21 µM | GI50 [41]: 710 nM | TGI [41]: 2110 nM | GI50 [3]: 1510 nM | TGI [3]: 2840 nM | GI50 [4]: 130 nM | TGI [4]: 1700 nM | GI50 [5]: 1760 nM | TGI [5]: 8.54 µM | GI50 [6]: 0.803 µM | TGI [6]: 2160 nM | GI50 [7]: 419 nM | TGI [7]: 1690 nM | GI50 [8]: 58.8 nM | TGI [8]: 1450 nM | GI50 [42]: 742 nM | TGI [42]: 2180 nM | GI50 [9]: 1160 nM | TGI [9]: 2370 nM | GI50 [43]: 1110 nM | TGI [43]: 2330 nM | GI50 [10]: 1540 nM | TGI [10]: 2900 nM | GI50 [44]: 365 nM | TGI [44]: 1720 nM | GI50 [45]: 1610 nM | TGI [45]: 3.62 µM | GI50 [46]: 83.9 nM | TGI [46]: 1310 nM | GI50 [11]: 412 nM | TGI [11]: 1890 nM | GI50 [12]: 287 nM | TGI [12]: 1650 nM | GI50 [47]: 380 nM | TGI [47]: 1780 nM | GI50 [13]: 567 nM | TGI [13]: 2010 nM | GI50 [14]: 822 nM | TGI [14]: 2090 nM | GI50 [15]: 544 nM | TGI [15]: 1850 nM | GI50 [16]: 0.825 µM | TGI [16]: 2130 nM | GI50 [17]: 756 nM | TGI [17]: 2050 nM | GI50 [48]: 60.9 nM | TGI [48]: 1320 nM | GI50 [18]: 0.81 µM | TGI [18]: 2050 nM | GI50 [19]: 1140 nM | TGI [19]: 2.36 µM | GI50 [20]: 1100 nM | TGI [20]: 2290 nM | GI50 [21]: 0.748 µM | TGI [21]: 2180 nM | GI50 [22]: 0.513 µM | TGI [22]: 1750 nM | GI50 [23]: 468 nM | TGI [23]: 1860 nM | GI50 [49]: 395 nM | TGI [49]: 1880 nM | GI50 [25]: 1420 nM | TGI [25]: 2730 nM | GI50 [26]: 1280 nM | TGI [26]: 2530 nM | GI50 [50]: 640 nM | TGI [50]: 2000 nM | GI50 [51]: 1220 nM | TGI [51]: 2540 nM | GI50 [27]: 0.391 µM | TGI [27]: 1730 nM | GI50 [52]: 445 nM | TGI [52]: 1930 nM | GI50 [53]: 133 nM | TGI [53]: 1500 nM | GI50 [54]: 680 nM | TGI [54]: 1930 nM | GI50 [28]: 1210 nM | TGI [28]: 2770 nM | GI50 [29]: 0.433 µM | TGI [29]: 1660 nM | GI50 [30]: 1400 nM | TGI [30]: 2780 nM | GI50 [55]: 63.1 nM | TGI [55]: 1340 nM | GI50 [56]: 802 nM | TGI [56]: 3.25 µM | GI50 [57]: 495 nM | TGI [57]: 1710 nM | GI50 [58]: 866 nM | TGI [58]: 2130 nM | GI50 [31]: 357 nM | TGI [31]: 2000 nM | GI50 [32]: 891 nM | TGI [32]: 2240 nM | GI50 [33]: 1340 nM | TGI [33]: 3.02 µM | GI50 [34]: 0.146 µM | TGI [34]: 1550 nM | GI50 [35]: 519 nM | TGI [35]: 1820 nM | GI50 [36]: 0.775 µM | TGI [36]: 2050 nM | GI50 [37]: 0.485 µM | TGI [37]: 2020 nM | GI50 [38]: 0.579 µM | TGI [38]: 1920 nM | GI50 [39]: 865 nM | TGI [39]: 2170 nM | GI50 [40]: 1520 nM | TGI [40]: 3.01 µM
